# Measured values as given in patent US12234233B2, “Crystal form of phosphodiesterase inhibitor, preparation method therefor and use thereof” (TRANSTHERA SCIENCES (NANJING), INC., priority 2019, dated 2025).
# Assay: Solubility in test solutions at different pHs and water
# Type: physicochemical
# Conditions: 37° C.
# Procedure: Test substances: the compound of formula (I) was prepared by example 1 of the present invention, the crystal form I was prepared by example 2 of the present invention, the crystal form II was prepared by example 16 of the present invention, the crystal form III was prepared by example 20 of the present invention, the crystal form IV was prepared by example 24 of the present invention, the crystal form V was prepared by example 25 of the present invention, the crystal form VI was prepared by example 27 of the present invention, and the crystal form VII was prepared by example 31 of the present invention.
# Preparation of Buffered Salt Solutions at Different pHs:
# hydrochloric acid solution at pH 1.0:9 ml of hydrochloric acid was pipetted, and water was added for dilution to 1000 ml; the mixture was mixed homogeneously to obtain a hydrochloric acid solution at pH 1.03. Phosphate buffered solution at pH 4.5:1.56 g of sodium dihydrogen phosphate dihydrate was weighed, and 200 ml of water was added to obtain a phosphate buffered solution at pH 4.50. Phosphate buffered solution at pH 6.8:1.56 g of sodium dihydrogen phosphate dihydrate was weighed, and 200 ml of water was added; and the mixture was adjusted to pH 6.80 with 1 mol/L sodium hydroxide solution.
# preparation of buffered solutions at different pHs (samples for determining solubility):
# 50 mg of each test substance was weighed, and 5 ml of the hydrochloric acid solution (pH 1.0) was added; and the mixture was mixed homogeneously with shaking. About 2.5 mg of each test substance was weighed, and 5 ml of the phosphate buffered solution (pH 4.5), 5 ml of the phosphate buffered solution (pH 6.8), and 5 ml of ultrapure water were added, respectively; the mixture was mixed homogeneously with shaking, and then placed in a 37° C. water bath shaker for shaking; the samples were collected at 24 hours and subjected to centrifugation; and the supernatant was taken and directly injected (if the solubility was high, the supernatant was diluted with a 0.1 mol/L hydrochloric acid solution to an appropriate multiple and then injected).
# The solubility of the samples was quantitatively calculated according to the single-point external standard method.
structure (smiles),measurement,setting,value
"CCc1cc2c(N3CCC(C)(OC)CC3)c(C#N)c(=O)[nH]c2cn1 [Crystal form I, 6-ethyl-4-(4-methoxy-4-methylpiperidin-1-yl)-2-oxo-1,2-dihydro-1,7-diazanaphthal ene-3-carbonitrile]",24-hour solubility,Water,110 µg/mL
same,24-hour solubility,pH 1.0 hydrochloric acid solution,8600 µg/mL
same,24-hour solubility,pH 4.5 phosphate buffered solution,130 µg/mL
same,24-hour solubility,pH 6.8 phosphate buffered solution,110 µg/mL
